Experimental data as given in US12377104B1, “Methods for treating a fatty liver disease” (Madrigal Pharmaceuticals, Inc., priority 2024, dated 2025).

What was measured:
[1] = MAESTRO-NASH: thyroid hormones at week 52; format: in vivo, human
clinical = conditions: human, in vivo
Description: Following once daily doses, steady state was typically reached within 3 to 6 days of dosing.

CC(C)c1cc(Oc2c(Cl)cc(-n3nc(C#N)c(=O)[nH]c3=O)cc2Cl)n[nH]c1=O [Resmetirom, 2-(3,5-dichloro-4-((5-isopropyl-6-oxo-1,6-dihydropyridazin-3-yl)oxy)phenyl)-3,5-dioxo-2,3,4,5-tetrahydro-1,2,4-triazine-6-carbonitrile]
FT3 (not on thyroxine), LS mean CFB ([1]; 80 mg, Week 52): -0.01 ng/L
FT3 (not on thyroxine), LS mean difference from PBO (CFB) ([1]; 80 mg, Week 52): 0.01 ng/L
FT3 (thyroxine-treated), LS mean CFB ([1]; 80 mg, Week 52): 0.04 ng/L
FT3 (thyroxine-treated), LS mean difference from PBO (CFB) ([1]; 80 mg, Week 52): 0.05 ng/L
FT3, LS mean CFB ([1]; 80 mg, Week 52): -0.01 ng/L
FT3, LS mean difference from PBO (CFB) ([1]; 80 mg, Week 52): 0.02 ng/L
FT3/rT3 (not on thyroxine), LS mean CFB ([1]; 80 mg, Week 52): 0.06
FT3/rT3 (not on thyroxine), LS mean difference from PBO (CFB) ([1]; 80 mg, Week 52): 0.06
FT3/rT3 (thyroxine-treated), LS mean CFB ([1]; 80 mg, Week 52): 0.05
FT3/rT3 (thyroxine-treated), LS mean difference from PBO (CFB) ([1]; 80 mg, Week 52): 0.06
FT3/rT3, LS mean difference from PBO (CFB) ([1]; 80 mg, Week 52): 0.06
FT4 (not on thyroxine), LS mean % CFB ([1]; 80 mg, Week 52): −13.8%
FT4 (not on thyroxine), LS mean CFB ([1]; 80 mg, Week 52): 0.16 ng/dL
FT4 (not on thyroxine), LS mean difference from PBO (% CFB) ([1]; 80 mg, Week 52): −16.3%
FT4 (not on thyroxine), LS mean difference from PBO (CFB) ([1]; 80 mg, Week 52): -0.18 ng/dL
FT4 (thyroxine-treated), LS mean % CFB ([1]; 80 mg, Week 52): −14.0%
FT4 (thyroxine-treated), LS mean CFB ([1]; 80 mg, Week 52): 0.18 ng/dL
FT4 (thyroxine-treated), LS mean difference from PBO (% CFB) ([1]; 80 mg, Week 52): −17.9%
FT4 (thyroxine-treated), LS mean difference from PBO (CFB) ([1]; 80 mg, Week 52): -0.21 ng/dL
FT4, LS mean % CFB ([1]; 80 mg, Week 52): 13.9%
FT4, LS mean CFB ([1]; 80 mg, Week 52): -0.17 ng/dL
FT4, LS mean difference from PBO (% CFB) ([1]; 80 mg, Week 52): −16.6%
FT4, LS mean difference from PBO (CFB) ([1]; 80 mg, Week 52): -0.19 ng/dL
TBG (not on thyroxine), LS mean CFB ([1]; 80 mg, Week 52): 0.19 mg/L
TBG (not on thyroxine), LS mean difference from PBO (CFB) ([1]; 80 mg, Week 52): -1.8 mg/L
TBG (thyroxine-treated), LS mean CFB ([1]; 80 mg, Week 52): 1.1 mg/L
TBG (thyroxine-treated), LS mean difference from PBO (CFB) ([1]; 80 mg, Week 52): -2.6 mg/L
TBG, LS mean CFB ([1]; 80 mg, Week 52): -0.32 mg/L
TBG, LS mean difference from PBO (CFB) ([1]; 80 mg, Week 52): -1.9 mg/L
TSH (not on thyroxine), LS mean CFB ([1]; 80 mg, Week 52): −0.23 mIU/L
TSH (not on thyroxine), LS mean difference from PBO (CFB) ([1]; 80 mg, Week 52): −0.15 mIU/L
TSH (thyroxine-treated), LS mean CFB ([1]; 80 mg, Week 52): −0.63 mIU/L
TSH (thyroxine-treated), LS mean difference from PBO (CFB) ([1]; 80 mg, Week 52): −0.41 mIU/L
TSH, LS mean CFB ([1]; 80 mg, Week 52): −0.28 mIU/L
TSH, LS mean difference from PBO (CFB) ([1]; 80 mg, Week 52): −0.18 mIU/L
rT3 (not on thyroxine), LS mean CFB ([1]; 80 mg, Week 52): -4.5 ng/dL
rT3 (not on thyroxine), LS mean difference from PBO (CFB) ([1]; 80 mg, Week 52): -4.5 ng/dL
rT3 (thyroxine-treated), LS mean CFB ([1]; 80 mg, Week 52): -5.1 ng/dL
rT3 (thyroxine-treated), LS mean difference from PBO (CFB) ([1]; 80 mg, Week 52): 5.1 ng/dL
rT3, LS mean CFB ([1]; 80 mg, Week 52): -4.6 ng/dL
rT3, LS mean difference from PBO (CFB) ([1]; 80 mg, Week 52): -4.73 ng/dL
rT3, LS mean CFB ([1]; 80 mg, week 52): 4.6 ng/dL
rT3, LS mean CFB difference from PBO ([1]; 80 mg, week 52): -4.7 ng/dL
FT3 (not on thyroxine), LS mean CFB ([1]; 100 mg, Week 52): -0.08 ng/L
FT3 (not on thyroxine), LS mean difference from PBO (CFB) ([1]; 100 mg, Week 52): -0.06 ng/L
FT3 (thyroxine-treated), LS mean CFB ([1]; 100 mg, Week 52): -0.03 ng/L
FT3 (thyroxine-treated), LS mean difference from PBO (CFB) ([1]; 100 mg, Week 52): 0.01 ng/L
FT3, LS mean CFB ([1]; 100 mg, Week 52): 0.08 ng/L
FT3, LS mean difference from PBO (CFB) ([1]; 100 mg, Week 52): -0.05 ng/L
FT3/rT3 (not on thyroxine), LS mean CFB ([1]; 100 mg, Week 52): 0.06
FT3/rT3 (not on thyroxine), LS mean difference from PBO (CFB) ([1]; 100 mg, Week 52): 0.07
FT3/rT3 (thyroxine-treated), LS mean CFB ([1]; 100 mg, Week 52): 0.06
FT3/rT3 (thyroxine-treated), LS mean difference from PBO (CFB) ([1]; 100 mg, Week 52): 0.06
FT3/rT3, LS mean difference from PBO (CFB) ([1]; 100 mg, Week 52): 0.07
FT4 (not on thyroxine), LS mean % CFB ([1]; 100 mg, Week 52): −17.6%
FT4 (not on thyroxine), LS mean CFB ([1]; 100 mg, Week 52): -0.21 ng/dL
FT4 (not on thyroxine), LS mean difference from PBO (% CFB) ([1]; 100 mg, Week 52): 20.0%
FT4 (not on thyroxine), LS mean difference from PBO (CFB) ([1]; 100 mg, Week 52): -0.23 ng/dL
FT4 (thyroxine-treated), LS mean % CFB ([1]; 100 mg, Week 52): 20.6%
FT4 (thyroxine-treated), LS mean CFB ([1]; 100 mg, Week 52): -0.26 ng/dL
FT4 (thyroxine-treated), LS mean difference from PBO (% CFB) ([1]; 100 mg, Week 52): −24.4%
FT4 (thyroxine-treated), LS mean difference from PBO (CFB) ([1]; 100 mg, Week 52): 0.29 ng/dL
FT4, LS mean % CFB ([1]; 100 mg, Week 52): −18.1%
FT4, LS mean CFB ([1]; 100 mg, Week 52): -0.22 ng/dL
FT4, LS mean difference from PBO (% CFB) ([1]; 100 mg, Week 52): 20.7%
FT4, LS mean difference from PBO (CFB) ([1]; 100 mg, Week 52): -0.24 ng/dL
TBG (not on thyroxine), LS mean CFB ([1]; 100 mg, Week 52): 0.21 mg/L
TBG (not on thyroxine), LS mean difference from PBO (CFB) ([1]; 100 mg, Week 52): 1.8 mg/L
TBG (thyroxine-treated), LS mean CFB ([1]; 100 mg, Week 52): 3.1 mg/L
TBG (thyroxine-treated), LS mean difference from PBO (CFB) ([1]; 100 mg, Week 52): 4.6 mg/L
TBG, LS mean CFB ([1]; 100 mg, Week 52): -0.60 mg/L
TBG, LS mean difference from PBO (CFB) ([1]; 100 mg, Week 52): -2.2 mg/L
TSH (not on thyroxine), LS mean CFB ([1]; 100 mg, Week 52): −0.20 mIU/L
TSH (not on thyroxine), LS mean difference from PBO (CFB) ([1]; 100 mg, Week 52): −0.12 mIU/L
TSH (thyroxine-treated), LS mean CFB ([1]; 100 mg, Week 52): −0.13 mIU/L
TSH (thyroxine-treated), LS mean difference from PBO (CFB) ([1]; 100 mg, Week 52): 0.09 mIU/L
TSH, LS mean CFB ([1]; 100 mg, Week 52): −0.20 mIU/L
TSH, LS mean difference from PBO (CFB) ([1]; 100 mg, Week 52): 0.10 mIU/L
rT3 (not on thyroxine), LS mean CFB ([1]; 100 mg, Week 52): 4.9 ng/dL
rT3 (not on thyroxine), LS mean difference from PBO (CFB) ([1]; 100 mg, Week 52): -5.1 ng/dL
rT3 (thyroxine-treated), LS mean CFB ([1]; 100 mg, Week 52): -6.3 ng/dL
rT3 (thyroxine-treated), LS mean difference from PBO (CFB) ([1]; 100 mg, Week 52): -6.3 ng/dL
rT3, LS mean CFB ([1]; 100 mg, Week 52): 5.1 ng/dL
rT3, LS mean difference from PBO (CFB) ([1]; 100 mg, Week 52): -5.2 ng/dL
rT3, LS mean CFB ([1]; 100 mg, week 52): 5.1 ng/dL
rT3, LS mean CFB difference from PBO ([1]; 100 mg, week 52): 5.2 ng/dL
effect on levels of thyrotropin or free triiodothyronine (FT3) ([1]; in vivo): no effect
reduction of prohormone free T4 (FT4) levels ([1]; independent of thyroxine-replacement status): 16 to 19%
Tmax (clinical): ~4 h
half-life (clinical): 4.5 h
AUC (clinical; 80 mg): 5850 ng·h/mL
Cmax (clinical; 80 mg): 778 ng/mL
AUC (clinical; 100 mg): 7780 ng·h/mL
Cmax (clinical; 100 mg): 971 ng/mL
